The target in the first experiment is T1, BaF3 BRAF-KIAA1549 fusion cells (Homo sapiens, UniProt P15056).
T1 construct: The BRAF-KIAA1549 fusion mutant was subcloned into pMXs-IRES-Blasticidin (RTV-016, Cell Biolabs, San Diego, CA); No tag given; Q9HCM3 (UPF0606 protein KIAA1549)
T1 sequence (P15056 whole entry, change not shown, the tested form may be a part): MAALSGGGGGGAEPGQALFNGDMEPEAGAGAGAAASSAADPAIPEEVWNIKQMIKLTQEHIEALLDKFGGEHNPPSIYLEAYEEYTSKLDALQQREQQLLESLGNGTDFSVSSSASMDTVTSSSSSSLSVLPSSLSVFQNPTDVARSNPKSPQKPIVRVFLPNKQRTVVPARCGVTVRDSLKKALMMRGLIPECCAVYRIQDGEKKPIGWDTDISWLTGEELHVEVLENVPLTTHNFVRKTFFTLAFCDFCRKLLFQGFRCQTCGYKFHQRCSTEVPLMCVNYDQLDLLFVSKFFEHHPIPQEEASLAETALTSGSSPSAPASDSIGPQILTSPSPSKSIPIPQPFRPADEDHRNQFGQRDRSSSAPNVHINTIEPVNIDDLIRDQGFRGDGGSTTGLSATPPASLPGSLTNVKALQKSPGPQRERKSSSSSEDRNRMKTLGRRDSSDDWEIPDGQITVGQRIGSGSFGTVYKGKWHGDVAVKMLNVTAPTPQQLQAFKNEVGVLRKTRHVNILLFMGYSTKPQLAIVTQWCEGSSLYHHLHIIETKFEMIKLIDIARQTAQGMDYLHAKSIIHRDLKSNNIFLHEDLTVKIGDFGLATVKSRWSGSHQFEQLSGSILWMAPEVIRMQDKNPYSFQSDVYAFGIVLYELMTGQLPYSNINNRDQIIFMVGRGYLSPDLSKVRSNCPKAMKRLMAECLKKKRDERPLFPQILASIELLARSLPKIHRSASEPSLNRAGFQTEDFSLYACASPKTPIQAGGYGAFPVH
Description: BaF3 BRAF-KIAA1549 fusion cell proliferation assay (CellTiterGlo, 96 hours). Type of experiment: cell-based. The following applies: Table A1. How it is done: Retroviral Production: The BRAF-KIAA1549 fusion mutant was subcloned into pMXs-IRES-Blasticidin (RTV-016, Cell Biolabs, San Diego, CA). Retrovirus was produced by transfection of HEK 293T cells with the retroviral BRAF mutant expression vector pMXs-IRES-Blasticidin (RTV-016, Cell Biolabs), pCMV-Gag-Pol vector and pCMV-VSV-G-Envelope vector. Briefly, HEK 293T cells were plated in Poly-D-lysine coated 6-well plate (2.5×10^5 cells per well) and incubated overnight. The next day, retroviral plasmids (1 μg of BRAF-KIAA fusion mutant, 0.32 μg of pCMV-Gag-Pol and 0.165 μg pCMV-VSV-G) were mixed in 300 μL of Optimem (31985, Life Technologies). The mixture was incubated at room temperature for 5 minutes and then added to Optimem containing transfection reagent Lipofectamine (11668, Invitrogen) and incubated for 20 minutes. The mixture was then added dropwise to HEK 293T cells. The next day the medium was replaced with fresh culture medium and retrovirus was harvested at 24 hours.
Generation of BRAF-KIAA1549 fusion stable cell line: BaF3 cells were plated in V-bottom 96 well plate (COSTAR #3894) in 80 μL of RPMI/10% FBS and 0.01 ng/mL mouse IL-3, supplemented with 8 μg/mL polybrene (4×10^4 cells/well). Cells were transduced with 20 μL of BRAF-KIAA1549 fusion viral supernatant by centrifuging for 30 minutes at 1000 rpm. Cells were placed in a 37° C. incubator overnight. Next day 100 μL of RPMI/10% FBS and 0.01 ng/mL mouse IL-3 was added. After 24 hours, 100 μL of cells were transferred to a 24 well plate containing 900 μL of RPM/10% FBS and 15 μg/mL Blasticidin. Contents of the 24 well plate were sampled for cell viability via CellTiterGlo (Promega) over a 2-week period.
Assay for cell proliferation: BaF3 BRAF-KIAA1549 fusion cells were resuspended at 1.5×10^5 c/mL in RPMI containing 10% Heat Inactivated FBS, 1% L-glutamine and dispensed in duplicate (7×10^4 c/well) into 384 well plates. To determine the effect of compound on cell proliferation, BaF3 BRAF-KIAA1549 fusion cells were incubated for 96 hours in the presence of vehicle control (DMSO) or compound at varying concentrations. Inhibition of cell growth was determined by luminescent quantification (Envision by Perkin Elmer) of intracellular ATP content using CellTiterGlo (Promega), according to the protocol provided by the manufacturer. To determine the IC50 values, the vehicle-treated cells were normalized as viable cells and analyzed using the CDD Vault, Collaborative Drug Discovery, Burlingame, CA (the Levenberg-Marquardt algorithm; Levenberg, K., […]; Marquardt, D., 1963).
Tables A1 and A2 assign each compound a code for potency in the BaF3 BRAF-KIAA1549 fusion cell proliferation assay: A, B, C, or D. According to the code, A represents an IC50 value <20 nM; B represents an IC50 value ≥20 nM and <100 nM; C represents an IC50 value ≥100 nM and <500 nM; and D represents an IC50 value ≥500 nM.
`CNc1cc2ncc(-c3cc(NC(=O)c4cc(C(C)(C)F)ccn4)cnc3C)cc2cn1` [Compound 65, 4-(2-Fluoropropan-2-yl)-N-(6-methyl-5-(7-(methylamino)-1,6-naphthyridin-3-yl)pyridin-3-yl)picolinamide] had a concentration for 50% growth inhibition (GI50) of 0.02 to 0.1 µM.

`CCNc1cc2ncc(-c3cc(NC(=O)c4cc(C(C)(C)C#N)ccn4)cnc3C)cc2cn1` [Compound 175, 4-(2-cyanopropan-2-yl)-N-(5-(7-(ethylamino)-1,6-naphthyridin-3-yl)-6-methylpyridin-3-yl)picolinamide]: the GI50 lay within 0.02 to 0.1 µM.

As to `CNc1cc2ncc(-c3cc(NC(=O)c4cc(C(F)(F)F)c(C)cn4)ccc3C)cc2cn1` [Compound 5, 5-Methyl-N-(4-methyl-3-(7-(methylamino)-1,6-naphthyridin-3-yl)phenyl)-4-(trifluoromethyl)picolinamide], the GI50 was in the range of 0.02 to 0.1 µM.

The experiment is the same for the next values; noted with them: Table A2.
As to `CNc1cc2ncc(-c3cc(NC(=O)c4n[nH]c5c4C[C@@H]4C[C@H]54)cnc3C)cc2cn1` [Compound 252, (4aS,5aS)—N-(6-methyl-5-(7-(methylamino)-1,6-naphthyridin-3-yl)pyridin-3-yl)-4,4a,5,5a-tetrahydro-1H-cyclopropa[4,5]cyclopenta[1,2-c]pyrazole-3-carboxamide], the GI50 lay within 0.02 to 0.1 µM.

`CNCC(F)(F)c1cccc(C(=O)Nc2cnc(C)c(-c3cnc4cc(NC)ncc4c3)c2)n1` [Compound 250, 6-(1,1-difluoro-2-(methylamino)ethyl)-N-(6-methyl-5-(7-(methylamino)-1,6-naphthyridin-3-yl)pyridin-3-yl)picolinamide] registered a GI50 not below 0.5 µM.

Compound `CNc1cc2ncc(-c3cc(NC(=O)c4nccc5c4OCCC5O)cnc3C)cc2cn1` (stereo not drawn) [Compound 211, 4-hydroxy-N-(6-methyl-5-(7-(methylamino)-1,6-naphthyridin-3-yl)pyridin-3-yl)-3,4-dihydro-2H-pyrano[2,3-c]pyridine-8-carboxamide] displayed a GI50 not below 0.5 µM.

Turning to `CNc1cc2ncc(-c3cc(NC(=O)c4cc(C(O)C5CC5)ccn4)cnc3C)cc2cn1` (stereo not drawn) [Compound 201, 4-(cyclopropyl(hydroxy)methyl)-N-(6-methyl-5-(7-(methylamino)-1,6-naphthyridin-3-yl)pyridin-3-yl)picolinamide], the GI50 was 0.02 to 0.1 µM.

As for `CNc1cc2ncc(-c3cc(NC(=O)c4cnc5n4CC(C(F)F)CC5)ccc3C)cc2cn1` (stereo not drawn) [Compound 238, 6-(difluoromethyl)-N-(4-methyl-3-(7-(methylamino)-1,6-naphthyridin-3-yl)phenyl)-5,6,7,8-tetrahydroimidazo[1,2-a]pyridine-3-carboxamide], the GI50 is 0.02 to 0.1 µM.

Consider `CNc1cc2ncc(-c3cc(NC(=O)c4cnn5c4CC(C)CC5)ccc3C)cc2cn1` (stereo not drawn) [Compound 265, 5-methyl-N-(4-methyl-3-(7-(methylamino)-1,6-naphthyridin-3-yl)phenyl)-4,5,6,7-tetrahydropyrazolo[1,5-a]pyridine-3-carboxamide], for which the GI50 was less than 0.02 µM.

With `CNc1cc2ncc(-c3cc(NC(=O)c4c[nH]c5ccccc45)cnc3C)cc2cn1` [Compound 194, N-(6-methyl-5-(7-(methylamino)-1,6-naphthyridin-3-yl)pyridin-3-yl)-1H-indole-3-carboxamide], the GI50 fell in the range of 0.02 to 0.1 µM.

Compound `Cc1ccc(NC(=O)c2cc(C(C)(C)C#N)ccn2)cc1-c1ccc2c3c(ncc2c1)NC(=O)C3` [Compound 275, 4-(2-cyanopropan-2-yl)-N-(4-methyl-3-(2-oxo-2,3-dihydro-1H-pyrrolo[2,3-c]isoquinolin-7-yl)phenyl)picolinamide] showed a GI50 of 0.02 to 0.1 µM.

In the case of `CNc1cc2ncc(-c3cc(NC(=O)c4nccc(C(C)C)c4Cl)cnc3C)cc2cn1` [Compound 256, 3-chloro-4-isopropyl-N-(6-methyl-5-(7-(methylamino)-1,6-naphthyridin-3-yl)pyridin-3-yl)picolinamide], the GI50 was 0.02 to 0.1 µM.

Values taken from patent US20250017914A1, “6-AZA-QUINOLINE DERIVATIVES AND RELATED USES” (Black Diamond Therapeutics, Inc., priority 2021, published 2025).
